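Briefly, cells in 96-well plates were exposed to five compound concentrations for 48 h, and endpoints were estimated by linear interpolation. Abbreviation: GI50, concentration required for 50% inhibition of growth. TGI marks complete inhibition of growth.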

Test systems include NCI-H522 lung; HCT-15 colon; TK-10 renal; NCI-H23 lung; CCRF-CEM leukemia; SNB-75 CNS; MOLT-4 leukemia; NCI-H226 lung; SR leukemia.
What all share (assay): inhibition of tumour cell growth, NCI panel, 48 h

Regarding `CCOC(=O)/C(O)=C(/c1n[nH]c(=O)c2ccccc12)[N+](=O)[O-]`, the TGI in the test on NCI-H522 lung, with HCT-15 colon, in the test with TK-10 renal, in the test with NCI-H23 lung, in the test on CCRF-CEM leukemia and in the test with SNB-75 CNS was greater than 100 µM each time. The TGI with MOLT-4 leukemia and with NCI-H226 lung was greater than 100 µM each time.
`COC(=O)C1=C(O)c2cc(OC)c(OC)c(OC)c2[C@H](c2cc(OC)c(OC)c(OC)c2)C1C(=O)OC` (stereo partly specified): the TGI is 43.5 µM in the test with NCI-H522 lung; greater than 100 µM in the test on HCT-15 colon; greater than 100 µM with TK-10 renal; greater than 100 µM with NCI-H23 lung; greater than 100 µM in the test with CCRF-CEM leukemia; greater than 100 µM in the test on SNB-75 CNS. Besides, the TGI was 68.3 µM with MOLT-4 leukemia and greater than 100 µM with NCI-H226 lung.
Turning to `O=S(=O)(O)O.[NH-]C1CCCCC1[NH-].[Pt+2]` (stereo unspecified), the GI50 was 23.6 µM with NCI-H522 lung; 61.5 µM with HCT-15 colon; greater than 100 µM in the test with TK-10 renal; greater than 100 µM in the test on NCI-H23 lung; 17.6 µM in the test on CCRF-CEM leukemia; 0.722 µM in the test on SNB-75 CNS. Moreover, in the test on MOLT-4 leukemia, the GI50 is 8.95 µM. Also, the TGI is greater than 100 µM in the test on NCI-H522 lung; greater than 100 µM with HCT-15 colon; greater than 100 µM in the test with TK-10 renal; greater than 100 µM with NCI-H23 lung; greater than 100 µM in the test on CCRF-CEM leukemia; 61.5 µM in the test with SNB-75 CNS. The compound further yielded a TGI in the test on MOLT-4 leukemia greater than 100 µM.
`O=c1cccccc1NCCOCCNc1cccccc1=O`: the TGI with NCI-H522 lung, in the test with HCT-15 colon, in the test with TK-10 renal, with NCI-H23 lung, with CCRF-CEM leukemia and in the test with SNB-75 CNS was greater than 100 µM throughout. Also, the TGI with MOLT-4 leukemia and in the test with NCI-H226 lung was greater than 100 µM throughout.
With `Cc1[nH]c2ccccc2c1C1Cc2ccccc2N1C(=O)/C=C/C=C/c1ccccc1` (stereo unspecified), the TGI in the test on NCI-H522 lung, with HCT-15 colon, with TK-10 renal, in the test with NCI-H23 lung, with CCRF-CEM leukemia and in the test with SNB-75 CNS was greater than 100 µM each time. For the same compound, the TGI in the test with MOLT-4 leukemia, in the test on SR leukemia and in the test with NCI-H226 lung was greater than 100 µM each time.
On to `O=S(=O)(/C=C/c1ccc(Cl)cc1Cl)Cc1ccccc1CS(=O)(=O)/C=C/c1ccc(Cl)cc1Cl`, for which the TGI with NCI-H522 lung, with HCT-15 colon, in the test on TK-10 renal, with NCI-H23 lung, with CCRF-CEM leukemia and in the test on SNB-75 CNS was greater than 100 µM in each case. Moreover, the TGI with MOLT-4 leukemia, in the test with SR leukemia and in the test with NCI-H226 lung was greater than 100 µM throughout.
Turning to `CCOC(C)C(/C=N/NC(N)=S)=NNC(N)=S` (stereo unspecified), the TGI was greater than 100 µM in the test with NCI-H522 lung; greater than 100 µM in the test on HCT-15 colon; greater than 100 µM with TK-10 renal; greater than 100 µM in the test on NCI-H23 lung; greater than 100 µM in the test on CCRF-CEM leukemia; greater than 89.4 µM in the test with SNB-75 CNS. Moreover, the TGI in the test on MOLT-4 leukemia and with SR leukemia was greater than 100 µM throughout.
In the case of `Cc1cc(O)cc2oc(=O)c3c(O)cc(O)cc3c12`, the TGI with NCI-H522 lung was 30.4 µM; in the test with HCT-15 colon, 45.4 µM; with TK-10 renal, greater than 100 µM; in the test on NCI-H23 lung, 48 µM; in the test with CCRF-CEM leukemia, greater than 100 µM; in the test with SNB-75 CNS, 32.2 µM. In addition, the TGI is 31.2 µM in the test on MOLT-4 leukemia, greater than 100 µM with SR leukemia and 91.8 µM in the test on NCI-H226 lung.
For the compound `CS(=O)(=O)NNS(=O)(=O)c1cccc([N+](=O)[O-])c1`, the TGI in the test on NCI-H522 lung, in the test with HCT-15 colon, with TK-10 renal, with NCI-H23 lung, with CCRF-CEM leukemia and with SNB-75 CNS was greater than 100 µM in each case. Besides, the TGI in the test on MOLT-4 leukemia, with SR leukemia and in the test on NCI-H226 lung was greater than 100 µM in each case.
In the case of `COC(=O)C1=C2CCC(=O)[C@@]2(C)C(OC(C)=O)C=CC1` (stereo partly specified), the TGI with HCT-15 colon is 87.3 µM; in the test with TK-10 renal, greater than 100 µM; in the test on NCI-H23 lung, greater than 100 µM; in the test with CCRF-CEM leukemia it was greater than 100 µM; with SNB-75 CNS it was greater than 100 µM; in the test on MOLT-4 leukemia it was greater than 100 µM. Further, the TGI in the test with NCI-H226 lung was greater than 100 µM.
In the case of `CCOC12OC3=C(CC1CC1=C(CCC1=O)O2)C(=O)CC3` (stereo unspecified), the TGI in the test with NCI-H522 lung, in the test on HCT-15 colon, in the test with TK-10 renal, in the test on NCI-H23 lung, in the test with CCRF-CEM leukemia and in the test with SNB-75 CNS was greater than 100 µM each time. Also, the TGI with MOLT-4 leukemia, in the test with SR leukemia and in the test on NCI-H226 lung was greater than 100 µM in each case.
`COc1ccc(C(=O)C(c2ccc(OC)cc2)C2(O)C(=O)Nc3ccccc32)cc1` (stereo unspecified): the TGI in the test on NCI-H522 lung, with HCT-15 colon, with TK-10 renal, in the test with NCI-H23 lung, in the test on CCRF-CEM leukemia and with SNB-75 CNS was greater than 100 µM throughout. Further, the TGI with MOLT-4 leukemia, in the test with SR leukemia and with NCI-H226 lung was greater than 100 µM throughout.
With `CN(C)CCNC(=O)c1cc2ccccc2c2nc3ccccc3nc12`, the TGI with NCI-H522 lung was greater than 100 µM; in the test on HCT-15 colon, 3.24 µM; with TK-10 renal it was 7.17 µM; in the test on NCI-H23 lung it was 2.69 µM; in the test with SNB-75 CNS, 4.26 µM; in the test with MOLT-4 leukemia, 0.487 µM. Further, the TGI in the test on SR leukemia amounted to 3.68 µM; in the test with NCI-H226 lung it was 2.44 µM.
Regarding `CC(=O)[CH-]C(=O)c1ccccc1.CC(=O)[CH-]C(=O)c1ccccc1.CC[O-].CC[O-].[Zr+4]`, the GI50 in the test with NCI-H522 lung was greater than 100 µM; in the test with HCT-15 colon, greater than 100 µM; in the test on NCI-H23 lung it was greater than 100 µM; in the test with CCRF-CEM leukemia it was 69.7 µM; in the test on SNB-75 CNS it was greater than 100 µM; with MOLT-4 leukemia it was greater than 100 µM. Further, the GI50 in the test on NCI-H226 lung is greater than 100 µM. In addition, the TGI in the test with NCI-H522 lung, with HCT-15 colon, in the test on NCI-H23 lung, with CCRF-CEM leukemia, in the test with SNB-75 CNS and with MOLT-4 leukemia was greater than 100 µM each time. Also, the TGI in the test on NCI-H226 lung is greater than 100 µM.
On to `O=C(O)C(CP(=O)(O)O)=C(Cl)Cl`, for which the TGI in the test on HCT-15 colon, with TK-10 renal, in the test on NCI-H23 lung, with CCRF-CEM leukemia, in the test with SNB-75 CNS and in the test with MOLT-4 leukemia was greater than 100 µM each time. For the same compound, the TGI in the test on SR leukemia and in the test on NCI-H226 lung was greater than 100 µM each time.
In the case of `Cc1ccc(NC(=O)CCC(CC(=O)C(C)(C)C)=NNC(=O)C(=O)NN)cc1C`, the TGI in the test on NCI-H522 lung, in the test on HCT-15 colon, in the test with TK-10 renal, with NCI-H23 lung, in the test with CCRF-CEM leukemia and with SNB-75 CNS was greater than 100 µM throughout. The TGI in the test with MOLT-4 leukemia and in the test with NCI-H226 lung was greater than 100 µM throughout.
Regarding `COc1cc(/C=C2/C(=O)N(C(=O)OC(C)C)C(Cc3cc(OC)c(OC)c(C)c3OC)C(=O)N2Cc2ccccc2)c(OC)c(C)c1OC` (stereo unspecified), the TGI with NCI-H522 lung was 32 µM; in the test on TK-10 renal, greater than 100 µM; with NCI-H23 lung, greater than 100 µM; in the test on CCRF-CEM leukemia, greater than 100 µM; in the test with SNB-75 CNS, greater than 100 µM; with MOLT-4 leukemia, 44.1 µM. The TGI is 51.1 µM in the test with SR leukemia and 30 µM in the test with NCI-H226 lung.
`C/C(=C\C(C)COCc1ccccc1)[C@H](COCc1ccccc1)OCc1ccccc1` (stereo partly specified): the TGI with NCI-H522 lung, in the test with HCT-15 colon, with TK-10 renal, in the test on NCI-H23 lung, in the test with CCRF-CEM leukemia and in the test on SNB-75 CNS was greater than 100 µM in each case. For the same compound, the TGI with MOLT-4 leukemia and in the test on NCI-H226 lung was greater than 100 µM in each case.
On to `O=c1/c(=C/c2cccc([N+](=O)[O-])c2)sc2nc3ccccc3n12`, for which the TGI in the test on HCT-15 colon, in the test on TK-10 renal, with NCI-H23 lung, in the test on CCRF-CEM leukemia, in the test on SNB-75 CNS and with NCI-H226 lung was greater than 100 µM throughout.
`CC(=O)OC(/C=C1/C=CC(=O)O1)COC(=O)c1ccccc1` (stereo unspecified): the TGI in the test with NCI-H522 lung, in the test on TK-10 renal, in the test on NCI-H23 lung, in the test with CCRF-CEM leukemia, in the test with SNB-75 CNS and with NCI-H226 lung was greater than 31.2 µM throughout.
`CCOC(=O)C12CCCC1(O)N(NC(=O)c1ccccc1)C(C)=C2C(=O)OC` (stereo unspecified): the TGI with NCI-H522 lung, in the test with HCT-15 colon, in the test on TK-10 renal, in the test on NCI-H23 lung, in the test with CCRF-CEM leukemia and in the test on MOLT-4 leukemia was greater than 100 µM each time. Besides, the TGI in the test on NCI-H226 lung is greater than 100 µM.
Take `CC1CC2(C)ON=C(c3ccccc3)N2c2ccccc2S1` (stereo unspecified): the GI50 with NCI-H522 lung is 27.5 µM; in the test with HCT-15 colon, 44.6 µM; with NCI-H23 lung, 28.1 µM; in the test on CCRF-CEM leukemia, 28.1 µM; with SNB-75 CNS, 41.8 µM; with MOLT-4 leukemia, 16 µM. Besides, the GI50 in the test on SR leukemia was 34.6 µM. Further, the TGI was 65.5 µM in the test with NCI-H522 lung, 97.5 µM in the test on NCI-H23 lung, 77.6 µM in the test on CCRF-CEM leukemia and 44.9 µM in the test on MOLT-4 leukemia.

For the origin of these results see PubChem BioAssay (NCI).
